From PubChem BioAssay (NCI)
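A five-concentration, 48-hour dose response in 96-well plates underlies each endpoint, interpolated linearly between surrounding concentrations. GI50: concentration for 50% inhibition of growth. TGI is the concentration that stops growth completely.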

Legend:
Experiment in all cases: NCI anticancer screen, dose series, 48 h
[1] = system: M19-MEL melanoma
[2] = system: DMS 273 small cell lung
[3] = system: DLD-1 colon
[4] = system: SNB-78 CNS
[5] = system: KM20L2 colon
[6] = system: RXF-631 renal
[7] = system: DMS 114 small cell lung
[8] = system: XF 498 CNS
[9] = system: MDA-N

Compound | TGI [1] [µM] | TGI [2] [µM] | TGI [3] [µM] | TGI [4] [µM] | TGI [5] [µM] | TGI [6] [µM] | TGI [7] [µM] | TGI [8] [µM] | TGI [9] [µM] | other results
CCc1oc2ccc(OC)c3c2c1C=CC=C3 | > 100 | > 100 | > 100 | > 100 | – | – | – | – | – | –
CC(C)(C)C[P+](C)(C)c1ccccc1 | > 100 | > 100 | > 100 | > 100 | > 100 | > 100 | > 100 | – | – | –
COC(=O)C1=Cc2c(OC)cc(OC)c(OC)c2[C@H](c2cc(OC)c(OC)cc2OC)C1C(=O)OC (stereo not given in full) | > 100 | > 100 | > 100 | > 100 | > 100 | > 100 | > 100 | > 100 | – | –
O=C1c2cccc3cc([N+](=O)[O-])cc(c23)C(=O)N1O | – | – | – | – | – | – | – | – | > 100 | –
CP(C)C.[Ag][I] | > 100 | > 100 | > 100 | 96.1 | > 100 | > 100 | > 100 | 30.9 | – | –
N#CC12Cc3ccc4c(c3-c3cccc(c31)CCN2C(=O)c1ccccc1)OCO4 (stereo not given) | > 100 | > 100 | > 100 | > 100 | > 100 | – | > 100 | > 100 | – | –
Cc1cccc(N=C2NC(=O)C(CC(=O)Nc3ccc(Cl)cc3C)S2)c1 (stereo not given) | > 100 | > 100 | > 100 | – | > 100 | > 100 | > 100 | – | – | –
CCOC(=O)N1CCC(=O)C[C@@H]1C/C=C/P1(=O)O[C@H](c2ccccc2)C(C)N1C(C)C (stereo not given in full) | > 100 | > 100 | – | > 100 | > 100 | – | > 100 | – | – | –
CC1=NN(c2ccccc2)C(=O)C1N=Nc1ccc(Br)c(C)c1 (stereo not given) | > 100 | > 100 | > 100 | > 100 | > 100 | > 100 | > 100 | > 100 | – | –
OC(c1ccccc1)c1c(-c2ccccc2)oc(-c2ccccc2)c1C(O)c1ccccc1 (stereo not given) | – | – | – | – | – | – | – | – | 24.6 | –
C[C@]12CCCC(=O)C1C[C@H](C(=O)O)CC2 (stereo not given in full) | > 100 | > 100 | > 100 | – | > 100 | > 100 | > 100 | > 100 | – | –
O=[N+]([O-])c1cc(/C=N/NS(=O)(=O)c2ccc(F)cc2)c(O)c([N+](=O)[O-])c1 | > 100 | 98.9 | > 100 | > 100 | 59.3 | – | > 100 | – | – | –
CC12OC3CC(O1)C1(C=O)C4CCC5(C)C(c6ccc(=O)oc6)CCC5(O)C4CCC1(C3)O2 (stereo not given) | 1.16 | 0.235 | 0.483 | 3.66 | 1.31 | – | 0.191 | – | – | –
O=C1CCC(=O)C(C(=O)CCC(=O)Nc2cccc(Cl)c2)C1 (stereo not given) | > 100 | – | > 100 | – | > 100 | – | – | > 100 | – | –
NC(=O)CCC(NC(=O)C(F)(F)F)C(=O)O (stereo not given) | > 100 | > 100 | > 100 | > 100 | > 100 | – | > 100 | > 100 | – | –
C=C=[CH][Sn]([c]1ccccc1)([c]1ccccc1)[c]1ccccc1 | 3.06 | – | 4.15 | 9.29 | 4 | – | 2.94 | – | – | GI50 [5]: 2.02 µM; GI50 [1]: 1.62 µM; GI50 [7]: 1.52 µM; GI50 [3]: 1.48 µM; GI50 [4]: 3.1 µM
CS(=O)(=O)c1nc(Cl)c(Cl)c(C#N)c1Cl | – | 24.6 | 3.13 | > 36 | 20.8 | 38.9 | 32.2 | 7.93 | 3.5 | –
Nc1cccc2nsnc12 | – | – | – | – | – | – | – | – | > 100 | –
NC(=O)NC(=O)C1CCCCC1C(=O)O (stereo not given) | – | – | – | – | – | – | – | – | > 100 | –
Cc1cc(C)c2[s+]snc2c1 | > 100 | > 100 | > 100 | > 100 | > 100 | > 100 | – | > 100 | – | –
OC1C2C=CCC1CCC2 (stereo not given) | > 100 | > 100 | > 100 | > 100 | > 100 | > 100 | > 100 | > 100 | – | –
CCOC(=O)C1(Cc2ccc3ccccc3c2)CCCCCN1 (stereo not given) | 93.8 | 38.4 | 56.9 | > 100 | 57 | – | 87.4 | 41.2 | – | –
CC[C@@]1(OC(=O)CN)C(=O)OCc2c1cc1n(c2=O)Cc2cc3c(N)c4c(cc3nc2-1)OCO4 | – | – | – | – | – | – | – | – | > 100 | GI50 [9]: 0.0127 µM
c1cnc2c(c1)Nc1cnncc1S2 | – | – | – | – | – | – | – | – | > 100 | –
CCOC(=O)CNC(=O)C(CSC(=O)N(C)O)NC(=O)CCC(N)C(=O)O (stereo not given) | > 2000 | – | – | – | > 2000 | – | – | – | – | GI50 [5]: > 2000 µM; GI50 [1]: > 2000 µM; GI50 [2]: > 2000 µM; GI50 [7]: > 2000 µM; GI50 [3]: > 2000 µM
O=P1(O)c2ccccc2CS(=O)(=O)Cc2ccccc21 | – | – | – | – | – | – | – | – | > 100 | –
COc1cc2c3c(c1O)C1(C=CC(=O)C=C1)CC3N(C)CC2 (stereo not given) | – | – | – | – | – | – | – | – | 24.2 | –
O=c1[nH]c2c(O)cccc2c2cc3c(c(O)c12)OCO3 | 93.5 | 59.3 | 62.4 | 80.4 | 40.4 | – | 75.8 | 56 | – | –
CC(C)[O-].CC(C)[O-].[O-]c1cccc2cccnc12.[O-]c1cccc2cccnc12.[Ti+4] | – | – | – | – | > 100 | – | – | – | – | GI50 [3]: 4.97 µM
Cc1cc2c(cc1C)[n+]([O-])c(-c1c(Cl)cccc1Cl)c(N)[n+]2[O-] | > 100 | 86.3 | > 100 | > 100 | > 100 | 35.7 | 98.7 | – | – | –
